Reference: patent EP0166986A1, “Disubstituted 3,7-diaryl-1,5,3,7-dioxadiazocines, and process for their preparation” (Deutsches Krebsforschungszentrum Stiftung des öffentlichen …, priority 1984, dated 1986)

What was measured:
TA100 = test: Mutagenicity test (Ames test), preincubation with or without rat liver S9; format: cell-based, S. Typhimurium
Experimental: (§1) • a) Mutagenitätsprüfungen Die Versuchsverbindung, gelöst in 40 µl an Dimethylsulphoxid und 100 µl eines Übernacht-Kulturmediums wurde zu 500 µl eines S9-Gemisches gegeben das 100 µl Leber S9 von mit Aroclor behandelten männlichen BD VI Ratten, 50 µl 0,15 M KC1 - 5 mM Sørensen Puffer pH 7,4 , […] Sørensen Phosphat Puffer (pH 7,4), […] NADP^+, 2,5 µmol Glukose-6-phosphat und […] MgC12 enthält. Das Gemisch wurde bei 37°C 30 Minuten lang unter Schütteln vorinkubiert und dann mit 2 ml histidinarmem Weichagar für die Plattenbildung auf minimalem Glukoseagar kombiniert. Die Anzahl der Revertanten wurde nach 48-stündiger Inkubation bei 37°C gezählt.
(§2) Mutagenität von synthetischen zyklischen Dioxadiazocinen in S. Typhimurium Stämmen. • a) Die meisten Zahlen entsprechen Mittelwerten aus zwei Versuchsreihen, die je dreifach gemacht wurden. Die Anzahl der spontanen Revertanten pro Platte (in Gegenwart des Lösungsmittels) wurde abgezogen. • b) AS: die Versuche wurden in Gegenwart (+) oder in Abwesenheit (-) eines metabolischen Aktivierungssystems aus S9 Rattenleber durchgeführt. • c) Die Konzentration bei welcher die untersuchten Verbindungen in S9-Mischung ausfielen.

TA98 = test: as above; format: cell-based, S. Typhimurium
Experimental: as §1, §2

S. Typhimurium Stämmen = test: Mutagenicity test (Ames test), summary statements not tied to one strain; format: cell-based; conditions: for Mutagenität: S. Typhimurium strains, overall result in words
Experimental: as §1, §2

[1] = TA100, +AS (rat liver S9), 30 µg pro Platte, spontaneous revertants subtracted
[2] = TA100, +AS (rat liver S9), 100 µg pro Platte, spontaneous revertants subtracted (pp'-CH3O CO precipitated in S9 mix)
[3] = TA100, +AS (rat liver S9), 300 µg pro Platte, compounds precipitated in S9 mix, spontaneous revertants subtracted
[4] = TA100, -AS, 30 µg pro Platte, spontaneous revertants subtracted
[5] = TA100, -AS, 100 µg pro Platte, spontaneous revertants subtracted
[6] = TA100, -AS, 300 µg pro Platte, spontaneous revertants subtracted
[7] = TA98, +AS (rat liver S9), 30 µg pro Platte, spontaneous revertants subtracted
[8] = TA98, +AS (rat liver S9), 100 µg pro Platte, spontaneous revertants subtracted (pp'-CH3O CO precipitated in S9 mix)
[9] = TA98, +AS (rat liver S9), 300 µg pro Platte, compounds precipitated in S9 mix, spontaneous revertants subtracted
[10] = TA98, -AS, 30 µg pro Platte, spontaneous revertants subtracted
[11] = TA98, -AS, 100 µg pro Platte, spontaneous revertants subtracted
[12] = TA98, -AS, 300 µg pro Platte, spontaneous revertants subtracted

Compound: FC(F)(F)c1ccc(N2COCN(c3ccc(C(F)(F)F)cc3)COC2)cc1 [pp'-CF3, para-Trifluormethyl-3,7-diphenyl-1,5,3,7-dioxadiazocin]
- Anzahl der Revertanten pro Platte (TA100; [1]): 44 Revertanten pro Platte
- Anzahl der Revertanten pro Platte (TA100; [2]): 86 Revertanten pro Platte
- Anzahl der Revertanten pro Platte (TA100; [3]): 98 Revertanten pro Platte
- Anzahl der Revertanten pro Platte (TA100; TA100, +AS (rat liver S9), 1000 µg pro Platte, compound precipitated in S9 mix, spontaneous revertants subtracted): 96 Revertanten pro Platte
- Anzahl der Revertanten pro Platte (TA100; [4]): 8 Revertanten pro Platte
- Anzahl der Revertanten pro Platte (TA100; [5]): 14 Revertanten pro Platte
- Anzahl der Revertanten pro Platte (TA100; [6]): 5 Revertanten pro Platte
- Anzahl der Revertanten pro Platte (TA100; TA100, -AS, 1000 µg pro Platte, spontaneous revertants subtracted): 1 Revertanten pro Platte
- Mutagenität (TA100; TA100, in presence of metabolic activation system, result in words): schwach mutagen
- Anzahl der Revertanten pro Platte (TA98; [7]): 10 Revertanten pro Platte
- Anzahl der Revertanten pro Platte (TA98; [8]): 14 Revertanten pro Platte
- Anzahl der Revertanten pro Platte (TA98; [9]): 24 Revertanten pro Platte
- Anzahl der Revertanten pro Platte (TA98; TA98, +AS (rat liver S9), 1000 µg pro Platte, compound precipitated in S9 mix, spontaneous revertants subtracted): 12 Revertanten pro Platte
- Anzahl der Revertanten pro Platte (TA98; [10]): 0 Revertanten pro Platte
- Anzahl der Revertanten pro Platte (TA98; [11]): 0 Revertanten pro Platte
- Anzahl der Revertanten pro Platte (TA98; [12]): 2 Revertanten pro Platte
- Anzahl der Revertanten pro Platte (TA98; TA98, -AS, 1000 µg pro Platte, spontaneous revertants subtracted): 0 Revertanten pro Platte
- Mutagenität (S. Typhimurium Stämmen): mutagen

Compound: O=[N+]([O-])c1ccc(N2COCN(c3ccc([N+](=O)[O-])cc3)COC2)cc1 [pp'-NO2]
- Anzahl der Revertanten pro Platte (TA100; TA100, +AS (rat liver S9), 10 µg pro Platte, spontaneous revertants subtracted): 22 Revertanten pro Platte
- Anzahl der Revertanten pro Platte (TA100; [1]): 78 Revertanten pro Platte
- Anzahl der Revertanten pro Platte (TA100; [2]): 195 Revertanten pro Platte
- Anzahl der Revertanten pro Platte (TA100; [3]): 357 Revertanten pro Platte
- Anzahl der Revertanten pro Platte (TA100; TA100, -AS, 10 µg pro Platte, spontaneous revertants subtracted): 13 Revertanten pro Platte
- Anzahl der Revertanten pro Platte (TA100; [4]): 31 Revertanten pro Platte
- Anzahl der Revertanten pro Platte (TA100; [5]): 100 Revertanten pro Platte
- Anzahl der Revertanten pro Platte (TA100; [6]): 206 Revertanten pro Platte
- Mutagenität (Vergleich der Verbindungen) (TA100; TA100, rank among the three tested compounds): aktivste Verbindung
- Mutagenität der reaktiven metabolischen Spezies (TA100; with metabolic activation, TA100 compared with TA98): nur in TA100 mutagen oder stärker mutagen
- Anzahl der Revertanten pro Platte (TA98; TA98, +AS (rat liver S9), 10 µg pro Platte, spontaneous revertants subtracted): 37 Revertanten pro Platte
- Anzahl der Revertanten pro Platte (TA98; [7]): 88 Revertanten pro Platte
- Anzahl der Revertanten pro Platte (TA98; [8]): 280 Revertanten pro Platte
- Anzahl der Revertanten pro Platte (TA98; [9]): 507 Revertanten pro Platte
- Anzahl der Revertanten pro Platte (TA98; TA98, -AS, 10 µg pro Platte, spontaneous revertants subtracted): 65 Revertanten pro Platte
- Anzahl der Revertanten pro Platte (TA98; [10]): 163 Revertanten pro Platte
- Anzahl der Revertanten pro Platte (TA98; [11]): 373 Revertanten pro Platte
- Anzahl der Revertanten pro Platte (TA98; [12]): 839 Revertanten pro Platte
- Mutagenität (Vergleich der Verbindungen) (TA98; TA98, rank among the three tested compounds): aktivste Verbindung
- direkte Mutagenität (TA98; without metabolic activation, TA98 compared with TA100): höher in TA98
- Mutagenität (S. Typhimurium Stämmen): mutagen
- direkte Mutagenität (S. Typhimurium Stämmen; without metabolic activation, result in words): direkt mutagen
